Reference: article PMC5031509 (ACS chemical neuroscience, 2016)

Tests used:
rat mGlu4 = rat mGlu4 (Rattus norvegicus, UniProt P31423); assay: functional assay using the rat mGlu4 protein; assay type: cell-based
[1] = plasma protein binding, rat; assay type: in vitro ADME
[2] = plasma protein binding, human; assay type: in vitro ADME
[3] = plasma protein binding, dog; assay type: in vitro ADME
[4] = plasma protein binding, mouse; assay type: in vitro ADME
[5] = plasma protein binding, rhesus; assay type: in vitro ADME; details: rhesus monkey
CYP1A2 [6] = biological target: T1, CYP1A2 (Homo sapiens, UniProt P05177); assay: CYP450 inhibition, cocktail approach in human liver microsomes; assay type: in vitro ADME
T1 sequence (P05177 1-516): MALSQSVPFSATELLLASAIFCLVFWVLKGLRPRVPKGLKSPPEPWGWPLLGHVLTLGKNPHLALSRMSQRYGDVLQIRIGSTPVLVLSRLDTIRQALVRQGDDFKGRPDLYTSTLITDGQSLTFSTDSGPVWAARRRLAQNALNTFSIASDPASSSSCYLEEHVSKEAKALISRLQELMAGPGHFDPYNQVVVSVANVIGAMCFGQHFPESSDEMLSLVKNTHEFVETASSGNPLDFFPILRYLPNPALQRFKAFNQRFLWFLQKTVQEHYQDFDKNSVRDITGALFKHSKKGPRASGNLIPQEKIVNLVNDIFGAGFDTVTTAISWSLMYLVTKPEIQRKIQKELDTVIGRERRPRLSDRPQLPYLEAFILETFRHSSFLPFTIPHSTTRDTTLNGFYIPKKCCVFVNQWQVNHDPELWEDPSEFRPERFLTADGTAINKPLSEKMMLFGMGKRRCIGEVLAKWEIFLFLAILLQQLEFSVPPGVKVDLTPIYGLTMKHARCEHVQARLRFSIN

CYP2C9 = CYP2C9 (Homo sapiens, UniProt P11712); assay: as above; assay type: in vitro ADME
CYP2D6 = CYP2D6 (Homo sapiens, UniProt P10635); assay: as above; assay type: in vitro ADME
CYP3A4 = CYP3A4 (Homo sapiens, UniProt P08684); assay: as above; assay type: in vitro ADME
CYP2C19 = CYP2C19 (Homo sapiens, UniProt P33261); assay: CYP450 inhibition; assay type: in vitro ADME
[7] = in vivo PK, rhesus IV cassette; details: rhesus monkey, plasma
[8] = plasma/brain PO snapshot study in rats; assay type: in vivo, rat
P-glycoprotein (Pgp) = P-glycoprotein (Pgp) (Homo sapiens, UniProt P08183); assay: Permeability; assay type: in vitro ADME
mGlu6 = mGlu6 (Homo sapiens, UniProt O15303); assay: mGlu selectivity assays in fold-shift format; assay type: cell-based
[9] = system: panel of GPCRs, enzymes, ion channels, nuclear hormone receptors and transporters; assay: wider selectivity panel; details: all targets except MAO-B
[10] = biological target: T2, monoamine oxidase-B (MAO-B) (Homo sapiens, UniProt P27338); assay: wider selectivity panel, MAO-B
T2 sequence (P27338 1-520): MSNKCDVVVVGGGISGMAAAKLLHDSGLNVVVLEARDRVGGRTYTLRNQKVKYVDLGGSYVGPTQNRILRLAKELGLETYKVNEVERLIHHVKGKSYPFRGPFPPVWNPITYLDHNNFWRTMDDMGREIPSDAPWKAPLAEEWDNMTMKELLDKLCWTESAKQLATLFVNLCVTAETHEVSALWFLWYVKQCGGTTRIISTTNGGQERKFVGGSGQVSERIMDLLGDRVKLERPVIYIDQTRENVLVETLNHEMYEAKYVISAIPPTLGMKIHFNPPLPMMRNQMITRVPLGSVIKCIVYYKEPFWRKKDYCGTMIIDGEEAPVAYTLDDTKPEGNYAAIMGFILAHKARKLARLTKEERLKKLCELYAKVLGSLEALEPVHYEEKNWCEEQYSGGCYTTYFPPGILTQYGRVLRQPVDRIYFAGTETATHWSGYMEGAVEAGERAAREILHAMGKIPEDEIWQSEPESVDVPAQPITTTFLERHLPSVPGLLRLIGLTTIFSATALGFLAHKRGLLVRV

[11] = system: panel of 96 kinase targets; assay: DiscoveRx KINOMEscan kinase panel; assay type: binding
[12] = system: nine cardiac ion channels (including hERG); assay: ChanTest Cardiac Channel Panel IC50 screen; details: human
CYP1A2 [13] = assay: CYP1A2 induction in cryopreserved hepatocytes; assay type: cell-based, human
Met ID = assay type: in vitro ADME; details: rat liver microsomes
in vivo [14] = details: rat, iv, 1 mg/kg
in vivo [15] = details: rat, po, 10 mg/kg

P-glycoprotein (Pgp), sequence (P08183 whole entry): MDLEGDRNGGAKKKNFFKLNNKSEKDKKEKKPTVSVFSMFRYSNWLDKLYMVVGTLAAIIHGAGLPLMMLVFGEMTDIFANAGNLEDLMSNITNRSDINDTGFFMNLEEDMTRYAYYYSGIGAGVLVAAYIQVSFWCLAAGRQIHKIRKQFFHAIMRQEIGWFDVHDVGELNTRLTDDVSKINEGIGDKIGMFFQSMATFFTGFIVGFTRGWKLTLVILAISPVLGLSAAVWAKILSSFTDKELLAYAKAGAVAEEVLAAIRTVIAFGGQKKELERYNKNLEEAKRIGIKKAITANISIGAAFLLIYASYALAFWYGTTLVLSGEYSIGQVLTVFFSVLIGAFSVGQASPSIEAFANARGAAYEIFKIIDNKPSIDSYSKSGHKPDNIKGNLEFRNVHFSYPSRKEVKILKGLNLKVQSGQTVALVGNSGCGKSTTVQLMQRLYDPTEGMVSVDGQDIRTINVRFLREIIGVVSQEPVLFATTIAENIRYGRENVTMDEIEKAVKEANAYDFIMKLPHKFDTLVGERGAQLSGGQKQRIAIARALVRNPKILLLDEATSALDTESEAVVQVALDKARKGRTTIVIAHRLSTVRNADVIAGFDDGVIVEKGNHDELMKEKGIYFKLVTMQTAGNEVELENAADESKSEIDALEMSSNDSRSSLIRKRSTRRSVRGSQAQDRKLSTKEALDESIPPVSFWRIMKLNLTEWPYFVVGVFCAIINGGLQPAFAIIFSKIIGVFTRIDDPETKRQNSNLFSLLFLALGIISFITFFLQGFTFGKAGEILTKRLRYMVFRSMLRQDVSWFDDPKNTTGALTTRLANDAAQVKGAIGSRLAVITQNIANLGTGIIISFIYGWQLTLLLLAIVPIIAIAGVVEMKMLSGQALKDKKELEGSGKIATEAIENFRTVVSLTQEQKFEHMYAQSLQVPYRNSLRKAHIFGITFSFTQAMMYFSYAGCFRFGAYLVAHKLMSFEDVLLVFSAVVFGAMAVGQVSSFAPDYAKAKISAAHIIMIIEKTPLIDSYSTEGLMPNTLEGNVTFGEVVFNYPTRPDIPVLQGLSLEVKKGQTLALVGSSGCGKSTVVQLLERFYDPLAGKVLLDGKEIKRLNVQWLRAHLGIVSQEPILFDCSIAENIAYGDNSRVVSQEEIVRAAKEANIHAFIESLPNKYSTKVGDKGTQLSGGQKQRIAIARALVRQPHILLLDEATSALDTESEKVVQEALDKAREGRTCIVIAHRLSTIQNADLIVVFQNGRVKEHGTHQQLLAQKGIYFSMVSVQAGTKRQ
CYP2C19, sequence (P33261 whole entry): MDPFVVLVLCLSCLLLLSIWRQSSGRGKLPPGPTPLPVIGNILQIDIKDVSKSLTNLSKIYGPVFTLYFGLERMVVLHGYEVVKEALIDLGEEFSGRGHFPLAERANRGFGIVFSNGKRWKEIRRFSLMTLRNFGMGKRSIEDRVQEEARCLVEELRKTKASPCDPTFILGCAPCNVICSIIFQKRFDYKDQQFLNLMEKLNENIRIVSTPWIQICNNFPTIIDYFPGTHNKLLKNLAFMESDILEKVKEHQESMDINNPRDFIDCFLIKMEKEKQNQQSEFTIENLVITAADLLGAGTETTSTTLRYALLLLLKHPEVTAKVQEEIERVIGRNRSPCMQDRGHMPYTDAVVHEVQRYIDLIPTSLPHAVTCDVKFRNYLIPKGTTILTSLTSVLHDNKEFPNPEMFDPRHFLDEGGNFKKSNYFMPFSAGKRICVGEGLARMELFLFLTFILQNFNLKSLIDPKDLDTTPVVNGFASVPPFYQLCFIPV
mGlu6, sequence (O15303 25-877): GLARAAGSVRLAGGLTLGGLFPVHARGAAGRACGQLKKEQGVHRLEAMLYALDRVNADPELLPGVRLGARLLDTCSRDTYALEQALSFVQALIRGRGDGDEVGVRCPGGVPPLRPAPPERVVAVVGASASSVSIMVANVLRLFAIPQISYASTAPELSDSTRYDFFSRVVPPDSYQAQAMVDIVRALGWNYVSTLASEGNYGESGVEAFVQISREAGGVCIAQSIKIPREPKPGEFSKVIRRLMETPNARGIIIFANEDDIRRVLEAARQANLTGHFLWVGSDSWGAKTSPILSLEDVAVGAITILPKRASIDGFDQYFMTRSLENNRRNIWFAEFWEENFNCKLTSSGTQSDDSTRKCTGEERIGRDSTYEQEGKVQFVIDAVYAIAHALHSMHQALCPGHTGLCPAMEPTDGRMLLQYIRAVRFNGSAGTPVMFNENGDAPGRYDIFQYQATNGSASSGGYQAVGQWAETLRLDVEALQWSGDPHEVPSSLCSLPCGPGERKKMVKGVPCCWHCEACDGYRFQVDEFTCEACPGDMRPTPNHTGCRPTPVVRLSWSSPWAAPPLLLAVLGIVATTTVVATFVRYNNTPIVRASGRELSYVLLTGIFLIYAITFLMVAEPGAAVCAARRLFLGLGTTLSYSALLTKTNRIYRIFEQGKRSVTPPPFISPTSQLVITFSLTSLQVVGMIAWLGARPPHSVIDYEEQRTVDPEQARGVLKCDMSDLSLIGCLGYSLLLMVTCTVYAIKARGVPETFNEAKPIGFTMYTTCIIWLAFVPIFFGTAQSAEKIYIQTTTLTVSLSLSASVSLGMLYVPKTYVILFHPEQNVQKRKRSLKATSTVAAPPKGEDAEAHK
rat mGlu4, sequence (P31423 33-912): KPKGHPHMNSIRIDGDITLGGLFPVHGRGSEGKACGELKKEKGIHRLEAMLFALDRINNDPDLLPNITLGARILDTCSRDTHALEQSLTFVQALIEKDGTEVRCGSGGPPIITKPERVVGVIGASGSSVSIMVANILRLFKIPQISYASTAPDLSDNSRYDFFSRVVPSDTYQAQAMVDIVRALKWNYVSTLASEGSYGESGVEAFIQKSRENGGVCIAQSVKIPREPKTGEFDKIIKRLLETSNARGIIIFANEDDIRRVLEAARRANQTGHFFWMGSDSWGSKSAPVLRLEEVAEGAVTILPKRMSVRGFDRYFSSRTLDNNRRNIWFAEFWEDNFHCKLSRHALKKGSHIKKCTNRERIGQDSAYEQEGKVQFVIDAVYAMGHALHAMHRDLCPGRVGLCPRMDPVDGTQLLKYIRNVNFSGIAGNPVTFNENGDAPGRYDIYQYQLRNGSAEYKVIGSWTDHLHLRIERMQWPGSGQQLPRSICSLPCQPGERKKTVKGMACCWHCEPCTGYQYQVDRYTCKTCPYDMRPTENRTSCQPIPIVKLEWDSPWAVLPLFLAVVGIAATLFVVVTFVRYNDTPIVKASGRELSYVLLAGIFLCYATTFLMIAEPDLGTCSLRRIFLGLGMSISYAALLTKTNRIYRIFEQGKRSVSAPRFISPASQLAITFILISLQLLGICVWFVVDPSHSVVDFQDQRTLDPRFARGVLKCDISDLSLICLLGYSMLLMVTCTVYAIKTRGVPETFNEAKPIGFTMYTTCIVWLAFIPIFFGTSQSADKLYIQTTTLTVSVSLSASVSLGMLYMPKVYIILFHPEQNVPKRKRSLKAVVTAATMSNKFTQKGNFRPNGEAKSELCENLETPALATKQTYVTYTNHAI
CYP3A4, sequence (P08684 whole entry): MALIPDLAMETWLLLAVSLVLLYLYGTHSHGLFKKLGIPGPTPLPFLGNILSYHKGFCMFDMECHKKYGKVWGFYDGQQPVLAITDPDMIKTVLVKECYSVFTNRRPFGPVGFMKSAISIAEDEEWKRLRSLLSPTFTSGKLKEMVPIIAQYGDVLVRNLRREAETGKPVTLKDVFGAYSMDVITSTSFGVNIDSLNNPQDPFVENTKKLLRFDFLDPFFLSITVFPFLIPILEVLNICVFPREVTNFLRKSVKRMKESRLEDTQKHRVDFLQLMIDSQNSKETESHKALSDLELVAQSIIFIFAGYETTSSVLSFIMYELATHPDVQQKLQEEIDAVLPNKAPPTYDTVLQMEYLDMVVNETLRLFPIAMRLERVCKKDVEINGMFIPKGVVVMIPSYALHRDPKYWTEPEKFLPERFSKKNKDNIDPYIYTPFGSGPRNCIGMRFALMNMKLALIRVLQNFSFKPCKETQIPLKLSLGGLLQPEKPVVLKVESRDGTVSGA
CYP2C9, sequence (P11712 whole entry): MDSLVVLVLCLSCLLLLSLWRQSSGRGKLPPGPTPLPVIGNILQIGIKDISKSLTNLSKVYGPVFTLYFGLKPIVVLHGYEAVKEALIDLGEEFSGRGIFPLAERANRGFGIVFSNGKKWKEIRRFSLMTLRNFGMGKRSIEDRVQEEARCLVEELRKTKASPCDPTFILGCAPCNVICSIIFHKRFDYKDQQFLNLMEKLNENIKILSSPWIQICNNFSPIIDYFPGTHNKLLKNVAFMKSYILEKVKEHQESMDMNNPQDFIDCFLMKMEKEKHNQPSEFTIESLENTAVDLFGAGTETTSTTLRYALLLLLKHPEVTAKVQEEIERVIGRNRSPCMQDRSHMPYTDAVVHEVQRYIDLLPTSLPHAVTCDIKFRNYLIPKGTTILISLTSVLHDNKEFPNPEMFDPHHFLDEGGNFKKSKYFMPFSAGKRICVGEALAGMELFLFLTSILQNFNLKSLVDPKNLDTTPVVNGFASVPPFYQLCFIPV
CYP2D6, sequence (P10635 whole entry): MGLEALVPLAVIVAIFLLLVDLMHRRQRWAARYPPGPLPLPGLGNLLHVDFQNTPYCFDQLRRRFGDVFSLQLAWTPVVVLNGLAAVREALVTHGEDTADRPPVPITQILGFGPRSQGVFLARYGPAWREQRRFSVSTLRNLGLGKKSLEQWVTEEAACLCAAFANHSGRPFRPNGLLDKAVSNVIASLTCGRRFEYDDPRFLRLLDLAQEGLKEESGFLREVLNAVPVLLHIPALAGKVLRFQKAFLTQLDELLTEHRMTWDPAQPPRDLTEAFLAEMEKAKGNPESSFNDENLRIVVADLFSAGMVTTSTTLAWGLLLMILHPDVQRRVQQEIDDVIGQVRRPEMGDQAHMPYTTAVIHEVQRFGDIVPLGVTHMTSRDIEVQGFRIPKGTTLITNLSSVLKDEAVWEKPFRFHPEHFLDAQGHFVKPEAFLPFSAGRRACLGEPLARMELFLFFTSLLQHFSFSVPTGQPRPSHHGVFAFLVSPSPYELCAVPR

## Fc1ccc(Nc2n[nH]c3cccnc23)cc1Cl [Compound 26, N-(3-chloro-4-fluorophenyl)-1H-pyrazolo[4,3-b]pyridin-3-amine]
Rat mGlu4
  EC50: 0.046 µM
[1]; plasma protein binding (%Fu)
  fraction unbound: 0.028
[1]; plasma protein binding (Fu), rat plasma, fraction unbound
  fraction unbound: 0.028
[2]
  plasma protein binding (%Fu): 1.7%
[2]; plasma
  fraction unbound: 0.017
[3]
  fraction unbound: 0.009
[4]
  fraction unbound: 0.019
[5]
  fraction unbound: 0.014
CYP1A2 [6]
  IC50: < 0.1 µM
CYP2C9
  IC50: 8.9 µM
CYP2D6
  IC50: > 30 µM
CYP3A4
  IC50: > 30 µM
CYP2C19
  IC50: 6.1 µM
[7]
  clearance: 13 mL/min/kg
  half-life: 3 h
[8]; rat CNS PO PBL (0−6 h)
  brain AUC: 18 415 ng·h/mL
[8]; rat, brain/plasma, po
  Kp at 6 h: 2.1
[8]; rat, plasma, po
  AUC: 8770 ng·h/mL
P-glycoprotein (Pgp)
  substrate for P-glycoprotein: not a substrate
P-glycoprotein (Pgp); not told
  Papp A→B: 24 ×10⁻⁶ cm/s
  Papp B→A: 14 ×10⁻⁶ cm/s
mGlu6
  activity at mGlu6: functionally interact (with equipotency)
[9]
  activity against wider panel of targets: inactive
[10]
  activity against MAO-B: 330 nM
[11]
  activity against 96 kinase targets: < 30%
[12]
  IC50: > 100 µM
TA98 and TA100
  mini-AMES result: negative
CYP1A2 [13]
  CYP1A2 induction Emax: 104 fold-induction
CYP1A2 [13]; human
  EC50: 9.8 µM
Met ID
  major metabolite: oxodefluorination
In vivo [14]
  AUC: 608 ng·h/mL
  MRT: 2.2 h
  Vd: 4 L/kg
  clearance: 29 mL/min/kg
  half-life: 1.52 h
In vivo [15]; in vivo
  bioavailability: 95%
In vivo [15]; plasma
  AUC: 7420 ng·h/mL
  Cmax: 875 ng/mL
  Tmax: 2 h
